From patent publication US7507717B2 (Xenome Ltd., priority 2002, dated 2009)
pIC50: −log10 of the molar value. Residues, ends and D or L forms follow the SMILES beside them.

Each compound was assayed against T1, human noradrenaline transporter (hNET) (Homo sapiens, UniProt P23975) (assay: biochemical). Settings: Av IC50 Displacement of 3H-nisoxetine from hNET.
T1 construct: expressed in transfected cells; host or cells: COS-7 cells (ATCC), transient transfection with metafectene
Type: binding

T1 sequence (P23975 whole entry): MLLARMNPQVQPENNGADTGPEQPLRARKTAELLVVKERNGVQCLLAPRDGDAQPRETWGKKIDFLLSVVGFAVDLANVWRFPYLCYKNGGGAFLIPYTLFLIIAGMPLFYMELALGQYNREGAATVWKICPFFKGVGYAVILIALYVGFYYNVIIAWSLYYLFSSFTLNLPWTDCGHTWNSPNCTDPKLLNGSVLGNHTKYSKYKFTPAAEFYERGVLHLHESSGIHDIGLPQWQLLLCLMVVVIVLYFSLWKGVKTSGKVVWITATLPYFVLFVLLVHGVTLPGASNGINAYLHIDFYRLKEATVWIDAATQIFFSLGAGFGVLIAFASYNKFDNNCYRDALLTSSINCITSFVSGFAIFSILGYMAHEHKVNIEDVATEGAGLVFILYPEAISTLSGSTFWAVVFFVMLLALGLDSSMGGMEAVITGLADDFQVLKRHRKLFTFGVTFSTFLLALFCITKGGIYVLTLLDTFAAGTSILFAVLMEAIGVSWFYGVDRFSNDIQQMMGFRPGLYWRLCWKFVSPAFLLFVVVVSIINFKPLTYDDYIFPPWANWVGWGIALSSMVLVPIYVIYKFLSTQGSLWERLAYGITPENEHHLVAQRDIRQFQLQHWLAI

First: CC(C)C[C@@H]1NC(=O)[C@H](CCCCN)NC(=O)[C@H](Cc2ccc(O)cc2)NC(=O)CNC(=O)[C@@H]2CSSC[C@H](NC1=O)C(=O)N[C@@H](CCCNC(=N)N)C(=O)N[C@@H](C)C(=O)N[C@H](C(N)=O)CSSC[C@H](NC(=O)[C@@H](NC(=O)CNC(=O)[C@H](CCCNC(=N)N)NC(=O)[C@@H](N)Cc1c[nH]c3ccccc13)C(C)C)C(=O)N2 [compound 38]
Second: CC(C)C[C@H](NC(=O)CNC(=O)[C@H](CCCNC(=N)N)NC(=O)[C@@H](N)Cc1c[nH]c2ccccc12)C(=O)N[C@H]1CSSC[C@@H](C(N)=O)NC(=O)[C@H](C)NC(=O)[C@H](CCCNC(=N)N)NC(=O)[C@@H]2CSSC[C@H](NC1=O)C(=O)NCC(=O)N[C@@H](Cc1ccc(O)cc1)C(=O)N[C@@H](CCCCN)C(=O)N[C@@H](CC(C)C)C(=O)N2 [compound 78]
The pIC50 of the first is 0.43 log units higher: 6.99 for the first, 6.56 for the second.

`CC(C)C[C@@H]1NC(=O)[C@H](CCCCN)NC(=O)[C@H](Cc2ccc(O)cc2)NC(=O)CNC(=O)[C@@H]2CSSC[C@H](NC1=O)C(=O)N[C@@H](Cc1c[nH]cn1)C(=O)N[C@@H](C)C(=O)N[C@H](C(N)=O)CSSC[C@H](NC(=O)[C@@H](NC(=O)CNC(=O)[C@H](CCCNC(=N)N)NC(=O)[C@@H](N)Cc1c[nH]c3ccccc13)C(C)C)C(=O)N2` [compound 54] and `CC(C)C[C@@H]1NC(=O)[C@H](CCCCN)NC(=O)[C@H](Cc2ccc(O)cc2)NC(=O)CNC(=O)[C@@H]2CSSC[C@H](NC1=O)C(=O)N[C@@H](CCCNC(=N)N)C(=O)N[C@@H](C)C(=O)N[C@H](C(N)=O)CSSC[C@H](NC(=O)[C@@H](NC(=O)CNC(=O)[C@H](CC(N)=O)NC(=O)[C@@H](N)Cc1c[nH]c3ccccc13)C(C)C)C(=O)N2` [compound 69] (HELM PEPTIDE1{W.N.G.V.C.C.G.Y.K.L.C.R.A.C.[am]}$PEPTIDE1,PEPTIDE1,5:R3-14:R3|PEPTIDE1,PEPTIDE1,6:R3-11:R3$$$V2.0) are within 0.2 log units of each other in pIC50: 6.80 for the first, 6.66 for the second.

Compared with `CC(C)C[C@@H]1NC(=O)[C@H](CCCCN)NC(=O)[C@H](Cc2ccc(O)cc2)NC(=O)CNC(=O)[C@@H]2CSSC[C@H](NC1=O)C(=O)N[C@@H](Cc1c[nH]c3ccccc13)C(=O)N1CCC[C@H]1C(=O)N[C@H](C(N)=O)CSSC[C@H](NC(=O)[C@@H](NC(=O)CNC(=O)[C@@H](N)CC(N)=O)C(C)C)C(=O)N2` [compound 59] (HELM PEPTIDE1{N.G.V.C.C.G.Y.K.L.C.W.P.C.[am]}$PEPTIDE1,PEPTIDE1,4:R3-13:R3|PEPTIDE1,PEPTIDE1,5:R3-10:R3$$$V2.0), `CC(C)C[C@@H]1NC(=O)[C@H](CCCCN)NC(=O)[C@H](Cc2ccc(O)cc2)NC(=O)CNC(=O)[C@@H]2CSSC[C@H](NC1=O)C(=O)N[C@@H](Cc1c[nH]c3ccccc13)C(=O)N1CCC[C@H]1C(=O)N[C@H](C(N)=O)CSSC[C@H](NC(=O)[C@@H](NC(=O)CNC(=O)[C@H](CC(N)=O)NC(=O)[C@@H](N)Cc1ccc(O)cc1)C(C)C)C(=O)N2` [compound 91] is 0.35 log units lower in pIC50: 6.76 for the first, 6.41 for the second.

Compared with `CC(C)C[C@@H]1NC(=O)[C@H](CCCCN)NC(=O)[C@H](Cc2ccc(O)cc2)NC(=O)CNC(=O)[C@@H]2CSSC[C@H](NC1=O)C(=O)N[C@@H](CCCNC(=N)N)C(=O)N1CCC[C@H]1C(=O)N[C@H](C(N)=O)CSSC[C@H](NC(=O)[C@@H](NC(=O)CNC(=O)[C@H](CC(N)=O)NC(=O)[C@@H](N)Cc1c[nH]c3ccccc13)C(C)C)C(=O)N2` [compound 60], `CC(C)C[C@@H]1NC(=O)[C@H](CCCCN)NC(=O)[C@H](Cc2ccc(O)cc2)NC(=O)CNC(=O)[C@@H]2CSSC[C@H](NC1=O)C(=O)N[C@@H](CCCNC(=N)N)C(=O)N1CCC[C@H]1C(=O)N[C@H](C(N)=O)CSSC[C@H](NC(=O)[C@@H](NC(=O)CNC(=O)[C@H](CC(N)=O)NC(=O)[C@@H](N)Cc1ccc(O)cc1)C(C)C)C(=O)N2` [compound 84] is 0.23 log units lower in pIC50: 6.75 for the first, 6.52 for the second.

Compared with `CC(C)C[C@@H]1NC(=O)[C@H](CCCCN)NC(=O)[C@H](Cc2ccc(O)cc2)NC(=O)CNC(=O)[C@@H]2CSSC[C@H](NC1=O)C(=O)N[C@@H](Cc1c[nH]cn1)C(=O)N1CCC[C@H]1C(=O)N[C@H](C(N)=O)CSSC[C@H](NC(=O)[C@@H](NC(=O)[C@H](CC(=O)O)NC(=O)[C@@H](N)CC(N)=O)C(C)C)C(=O)N2` [compound 63] (HELM PEPTIDE1{N.D.V.C.C.G.Y.K.L.C.H.P.C.[am]}$PEPTIDE1,PEPTIDE1,4:R3-13:R3|PEPTIDE1,PEPTIDE1,5:R3-10:R3$$$V2.0), `CC(C)C[C@@H]1NC(=O)[C@H](CCCCN)NC(=O)[C@H](Cc2ccc(O)cc2)NC(=O)CNC(=O)[C@@H]2CSSC[C@H](NC1=O)C(=O)N[C@@H](Cc1c[nH]cn1)C(=O)N1CCC[C@H]1C(=O)N[C@H](C(N)=O)CSSC[C@H](NC(=O)[C@@H](NC(=O)[C@H](CCCCN)NC(=O)[C@@H](N)CC(N)=O)C(C)C)C(=O)N2` [compound 122] (HELM PEPTIDE1{N.K.V.C.C.G.Y.K.L.C.H.P.C.[am]}$PEPTIDE1,PEPTIDE1,4:R3-13:R3|PEPTIDE1,PEPTIDE1,5:R3-10:R3$$$V2.0) is 0.84 log units lower in pIC50: 6.72 for the first, 5.88 for the second. The first is the more potent here.

`CC(C)C[C@H](NC(=O)CNC(=O)[C@H](CCCNC(=N)N)NC(=O)[C@@H](N)Cc1c[nH]c2ccccc12)C(=O)N[C@H]1CSSC[C@@H](C(N)=O)NC(=O)CNC(=O)[C@H](CCCNC(=N)N)NC(=O)[C@@H]2CSSC[C@H](NC1=O)C(=O)NCC(=O)N[C@@H](Cc1ccc(O)cc1)C(=O)N[C@@H](CCCCN)C(=O)N[C@@H](CC(C)C)C(=O)N2` [compound 64] (HELM PEPTIDE1{W.R.G.L.C.C.G.Y.K.L.C.R.G.C.[am]}$PEPTIDE1,PEPTIDE1,5:R3-14:R3|PEPTIDE1,PEPTIDE1,6:R3-11:R3$$$V2.0; N-terminus and C-terminus assumed) and `CC(C)C[C@@H]1NC(=O)[C@H](CCCCN)NC(=O)[C@H](Cc2ccc(O)cc2)NC(=O)CNC(=O)[C@@H]2CSSC[C@H](NC1=O)C(=O)N[C@@H](CCCNC(=N)N)C(=O)N[C@@H](C)C(=O)N[C@H](C(N)=O)CSSC[C@H](NC(=O)[C@@H](NC(=O)CNC(=O)[C@H](CC(N)=O)NC(=O)[C@@H](N)Cc1ccc(O)cc1)C(C)C)C(=O)N2` [compound 81] are within 0.2 log units of each other in pIC50: 6.72 for the first, 6.53 for the second.

Compared with `CC(C)C[C@H](NC(=O)[C@H](CC(=O)O)NC(=O)[C@H](CCCCN)NC(=O)[C@@H](N)Cc1c[nH]c2ccccc12)C(=O)N[C@H]1CSSC[C@@H](C(N)=O)NC(=O)[C@@H]2CCCN2C(=O)[C@H](Cc2c[nH]c3ccccc23)NC(=O)[C@@H]2CSSC[C@H](NC1=O)C(=O)NCC(=O)N[C@@H](Cc1ccc(O)cc1)C(=O)N[C@@H](CCCCN)C(=O)N[C@@H](CC(C)C)C(=O)N2` [compound 90] (HELM PEPTIDE1{W.K.D.L.C.C.G.Y.K.L.C.W.P.C.[am]}$PEPTIDE1,PEPTIDE1,5:R3-14:R3|PEPTIDE1,PEPTIDE1,6:R3-11:R3$$$V2.0), `CC(C)C[C@@H]1NC(=O)[C@H](CCCCN)NC(=O)[C@H](Cc2ccc(O)cc2)NC(=O)CNC(=O)[C@@H]2CSSC[C@H](NC1=O)C(=O)N[C@@H](Cc1c[nH]cn1)C(=O)N1CCC[C@H]1C(=O)N[C@H](C(N)=O)CSSC[C@H](NC(=O)[C@@H](NC(=O)[C@H](CCCCN)NC(=O)[C@H](CC(N)=O)NC(=O)[C@@H](N)Cc1ccc(O)cc1)C(C)C)C(=O)N2` [compound 110] (HELM PEPTIDE1{Y.N.K.V.C.C.G.Y.K.L.C.H.P.C.[am]}$PEPTIDE1,PEPTIDE1,5:R3-14:R3|PEPTIDE1,PEPTIDE1,6:R3-11:R3$$$V2.0) is 0.44 log units lower in pIC50: 6.45 for the first, 6.01 for the second.

`CC(C)C[C@H](NC(=O)CNC(=O)[C@@H](N)CC(N)=O)C(=O)N[C@H]1CSSC[C@@H](C(N)=O)NC(=O)[C@@H]2CCCN2C(=O)[C@H](Cc2c[nH]cn2)NC(=O)[C@@H]2CSSC[C@H](NC1=O)C(=O)NCC(=O)N[C@@H](Cc1ccc(O)cc1)C(=O)N[C@@H](CCCCN)C(=O)N[C@@H](CC(C)C)C(=O)N2` [compound 97] and `CC(C)C[C@@H]1NC(=O)[C@H](CCCCN)NC(=O)[C@H](Cc2ccc(O)cc2)NC(=O)CNC(=O)[C@@H]2CSSC[C@H](NC1=O)C(=O)N[C@@H](Cc1c[nH]cn1)C(=O)N1CCC[C@H]1C(=O)N[C@H](C(N)=O)CSSC[C@H](NC(=O)[C@@H](NC(=O)CNC(=O)[C@@H](N)CCCNC(=N)N)C(C)C)C(=O)N2` [compound 98] are within 0.2 log units of each other in pIC50: 6.30 for the first, 6.29 for the second.

`CC[C@H](C)[C@H](NC(=O)CN)C(=O)N[C@@H](CC(C)C)C(=O)N[C@@H](CCCNC(=N)N)C(=O)N[C@@H](CC(N)=O)C(=O)NCC(=O)N[C@H](C(=O)N[C@H]1CSSC[C@@H](C(N)=O)NC(=O)[C@@H]2CCCN2C(=O)[C@H](Cc2c[nH]cn2)NC(=O)[C@@H]2CSSC[C@H](NC1=O)C(=O)NCC(=O)N[C@@H](Cc1ccc(O)cc1)C(=O)N[C@@H](CCCCN)C(=O)N[C@@H](CC(C)C)C(=O)N2)C(C)C` [compound 105] (HELM PEPTIDE1{G.I.L.R.N.G.V.C.C.G.Y.K.L.C.H.P.C.[am]}$PEPTIDE1,PEPTIDE1,8:R3-17:R3|PEPTIDE1,PEPTIDE1,9:R3-14:R3$$$V2.0) and `CC(C)C[C@@H]1NC(=O)[C@H](CCCCN)NC(=O)[C@H](Cc2ccc(O)cc2)NC(=O)CNC(=O)[C@@H]2CSSC[C@H](NC1=O)C(=O)N[C@@H](Cc1c[nH]cn1)C(=O)N1CCC[C@H]1C(=O)N[C@H](C(N)=O)CSSC[C@H](NC(=O)[C@@H](NC(=O)[C@H](CCCNC(=N)N)NC(=O)[C@H](CC(N)=O)NC(=O)[C@@H](N)Cc1ccc(O)cc1)C(C)C)C(=O)N2` [compound 118] (HELM PEPTIDE1{Y.N.R.V.C.C.G.Y.K.L.C.H.P.C.[am]}$PEPTIDE1,PEPTIDE1,5:R3-14:R3|PEPTIDE1,PEPTIDE1,6:R3-11:R3$$$V2.0) are within 0.2 log units of each other in pIC50: 6.12 for the first, 5.93 for the second.

`CC(C)C[C@@H]1NC(=O)[C@H](CCCCN)NC(=O)[C@H](Cc2ccc(O)cc2)NC(=O)CNC(=O)[C@@H]2CSSC[C@H](NC1=O)C(=O)N[C@@H](Cc1c[nH]cn1)C(=O)N1CCC[C@H]1C(=O)N[C@H](C(N)=O)CSSC[C@H](NC(=O)[C@@H](NC(=O)CNC(=O)[C@H](CC(N)=O)NC(=O)[C@@H](N)Cc1ccc(O)cc1)C(C)C)C(=O)N2` [compound 116] and `CC(C)C[C@@H]1NC(=O)[C@H](CCCCN)NC(=O)[C@H](Cc2ccc(O)cc2)NC(=O)CNC(=O)[C@@H]2CSSC[C@H](NC1=O)C(=O)N[C@@H](Cc1c[nH]cn1)C(=O)N[C@@H](CCCCN)C(=O)N[C@H](C(N)=O)CSSC[C@H](NC(=O)[C@@H](NC(=O)CNC(=O)[C@@H](N)CC(N)=O)C(C)C)C(=O)N2` [compound 117] (HELM PEPTIDE1{N.G.V.C.C.G.Y.K.L.C.H.K.C.[am]}$PEPTIDE1,PEPTIDE1,4:R3-13:R3|PEPTIDE1,PEPTIDE1,5:R3-10:R3$$$V2.0) are within 0.2 log units of each other in pIC50: 5.95 for the first, 5.94 for the second.
